This series deals with CCRIS mutagenicity, Ames/micronucleus/aberration tests. In words: CCRIS mutagenicity studies.
Where [1] appears, read: Test System: AMES SALMONELLA TYPHIMURIUM, Strain/Indicator: TA98, Metabolic Activation: NONE, Method: PREINCUBATION
[2] abbreviates: Test System: AMES SALMONELLA TYPHIMURIUM, Strain/Indicator: TA100, Metabolic Activation: NONE, Method: PREINCUBATION
The mark [3] stands for this setting: Test System: AMES SALMONELLA TYPHIMURIUM, Strain/Indicator: TA98(1,8-DNP6), Metabolic Activation: NONE, Method: STANDARD PLATE.
The mark [4] stands for this setting: Test System: AMES SALMONELLA TYPHIMURIUM, Strain/Indicator: TA98(NR), Metabolic Activation: NONE, Method: STANDARD PLATE.
The mark [5] stands for this setting: Test System: AMES SALMONELLA TYPHIMURIUM, Strain/Indicator: TA98, Metabolic Activation: NONE, Method: STANDARD PLATE.
Setting [6] is: Test System: AMES SALMONELLA TYPHIMURIUM, Strain/Indicator: TA98, Metabolic Activation: RAT, LIVER, S-9, PCB (10%), Method: PREINCUBATION

Activity calls are given as the source filed them. No rule for the calls is given here.

`O=C1c2ccccc2C(=O)C1c1ccc2ccccc2n1`: the mutagenic call by setting is: (Test System: AMES SALMONELLA TYPHIMURIUM, Strain/Indicator: TA97, Metabolic Activation: HAMSTER, LIVER, S-9, AROCLOR 1254 (10%), Method: PREINCUBATION) “inactive; negative”; (Test System: AMES SALMONELLA TYPHIMURIUM, Strain/Indicator: TA97, Metabolic Activation: HAMSTER, LIVER, S-9, AROCLOR 1254 (30%), Method: PREINCUBATION) “inactive; negative”; (Test System: AMES SALMONELLA TYPHIMURIUM, Strain/Indicator: TA97, Metabolic Activation: NONE, Method: PREINCUBATION) “inactive; negative”; (Test System: AMES SALMONELLA TYPHIMURIUM, Strain/Indicator: TA97, Metabolic Activation: RAT, LIVER, S-9, AROCLOR 1254 (10%), Method: PREINCUBATION) “inactive; negative”; (Test System: AMES SALMONELLA TYPHIMURIUM, Strain/Indicator: TA97, Metabolic Activation: RAT, LIVER, S-9, AROCLOR 1254 (30%), Method: PREINCUBATION) “inactive; negative”; (Test System: AMES SALMONELLA TYPHIMURIUM, Strain/Indicator: TA98, Metabolic Activation: HAMSTER, LIVER, S-9, AROCLOR 1254 (5%), Method: PREINCUBATION) “inactive; negative”. Moreover, the mutagenic call (Test System: AMES SALMONELLA TYPHIMURIUM, Strain/Indicator: TA98, Metabolic Activation: HAMSTER, LIVER, S-9, AROCLOR 1254 (10%), Method: PREINCUBATION) was “inactive; negative”; the mutagenic call (Test System: AMES SALMONELLA TYPHIMURIUM, Strain/Indicator: TA98, Metabolic Activation: HAMSTER, LIVER, S-9, AROCLOR 1254 (30%), Method: PREINCUBATION) was “inactive; negative”; the mutagenic call under setting [1] was “inactive; negative”; the mutagenic call (Test System: AMES SALMONELLA TYPHIMURIUM, Strain/Indicator: TA98, Metabolic Activation: RAT, LIVER, S-9, AROCLOR 1254 (5%), Method: PREINCUBATION) is “inactive; negative”; the mutagenic call (Test System: AMES SALMONELLA TYPHIMURIUM, Strain/Indicator: TA98, Metabolic Activation: RAT, LIVER, S-9, AROCLOR 1254 (10%), Method: PREINCUBATION) is “inactive; negative”; the mutagenic call (Test System: AMES SALMONELLA TYPHIMURIUM, Strain/Indicator: TA98, Metabolic Activation: RAT, LIVER, S-9, AROCLOR 1254 (30%), Method: PREINCUBATION) is “active; positive”. The mutagenic call was “inactive; negative” (Test System: AMES SALMONELLA TYPHIMURIUM, Strain/Indicator: TA100, Metabolic Activation: HAMSTER, LIVER, S-9, AROCLOR 1254 (10%), Method: PREINCUBATION); “active; positive” (Test System: AMES SALMONELLA TYPHIMURIUM, Strain/Indicator: TA100, Metabolic Activation: HAMSTER, LIVER, S-9, AROCLOR 1254 (30%), Method: PREINCUBATION); “inactive; negative” under setting [2]; “inactive; negative” (Test System: AMES SALMONELLA TYPHIMURIUM, Strain/Indicator: TA100, Metabolic Activation: RAT, LIVER, S-9, AROCLOR 1254 (5 OR 10%), Method: PREINCUBATION); “active; positive” (Test System: AMES SALMONELLA TYPHIMURIUM, Strain/Indicator: TA100, Metabolic Activation: RAT, LIVER, S-9, AROCLOR 1254 (30%), Method: PREINCUBATION); “inactive; negative” (Test System: AMES SALMONELLA TYPHIMURIUM, Strain/Indicator: TA1535, Metabolic Activation: HAMSTER, LIVER, S-9, AROCLOR 1254 (10%), Method: PREINCUBATION). The mutagenic call (Test System: AMES SALMONELLA TYPHIMURIUM, Strain/Indicator: TA1535, Metabolic Activation: HAMSTER, LIVER, S-9, AROCLOR 1254 (30%), Method: PREINCUBATION) is “inactive; negative”; the mutagenic call (Test System: AMES SALMONELLA TYPHIMURIUM, Strain/Indicator: TA1535, Metabolic Activation: NONE, Method: PREINCUBATION) is “inactive; negative”; the mutagenic call (Test System: AMES SALMONELLA TYPHIMURIUM, Strain/Indicator: TA1535, Metabolic Activation: RAT, LIVER, S-9, AROCLOR 1254 (10%), Method: PREINCUBATION) was “inactive; negative”; the mutagenic call (Test System: AMES SALMONELLA TYPHIMURIUM, Strain/Indicator: TA1535, Metabolic Activation: RAT, LIVER, S-9, AROCLOR 1254 (30%), Method: PREINCUBATION) was “inactive; negative”; the mutagenic call (Test System: AMES SALMONELLA TYPHIMURIUM, Strain/Indicator: TA1537 R+, Metabolic Activation: NONE, Method: STANDARD PLATE) is “active; positive”; the mutagenic call (Test System: AMES SALMONELLA TYPHIMURIUM, Strain/Indicator: TA1537 R+, Metabolic Activation: RAT, LIVER, S-9, AROCLOR 1254, Method: STANDARD PLATE) was “active; positive”. The mutagenic call is “active; positive” (Test System: AMES SALMONELLA TYPHIMURIUM, Strain/Indicator: TA1538, Metabolic Activation: HAMSTER, LIVER, S-9, AROCLOR 1254 (30%), Method: PREINCUBATION) and “active; positive” (Test System: AMES SALMONELLA TYPHIMURIUM, Strain/Indicator: TA1538, Metabolic Activation: RAT, LIVER, S-9, AROCLOR 1254 (30%), Method: PREINCUBATION).

`O=[N+]([O-])c1ccc2c(c1)Cc1cc([N+](=O)[O-])ccc1-2`: the mutagenic call under setting [3] is “active; positive”; the mutagenic call under setting [4] is “active; positive”; the mutagenic call under setting [1] was “active; positive”; the mutagenic call under setting [5] was “active; positive”; the mutagenic call (Test System: AMES SALMONELLA TYPHIMURIUM, Strain/Indicator: TA98, Metabolic Activation: RAT, LIVER, S-9, AROCLOR 1254, Method: STANDARD PLATE) is “active; positive”; the mutagenic call under setting [6] is “active; positive”. Further, the mutagenic call by setting is: (Test System: AMES SALMONELLA TYPHIMURIUM, Strain/Indicator: TA100, Metabolic Activation: NONE, Method: STANDARD PLATE) “active; positive”; (Test System: AMES SALMONELLA TYPHIMURIUM, Strain/Indicator: TA100, Metabolic Activation: RAT, LIVER, S-9, AROCLOR 1254, Method: STANDARD PLATE) “active; positive”.

For `Cc1ccc([N+](=O)[O-])cc1C`, the mutagenic call is “inactive; negative” under setting [1]; “inactive; negative” (Test System: AMES SALMONELLA TYPHIMURIUM, Strain/Indicator: TA98, Metabolic Activation: RAT, LIVER, S-9, KANECHLOR 500, Method: PREINCUBATION); “inactive; negative” under setting [2].

On to `O=S(=O)(O)c1ccc(N=Nc2cc(S(=O)(=O)O)c3ccccc3c2O)c2ccccc12`, for which the mutagenic call was “inactive; negative” (End Point: IN VITRO CHROMOSOMAL ABERRATIONS, Test System: CHO CELLS, Metabolic Activation: NONE); “inactive; negative” (End Point: IN VITRO CHROMOSOMAL ABERRATIONS, Test System: CHO CELLS, Metabolic Activation: RAT, LIVER, S-9, AROCLOR 1254); “inactive; negative” (Test System: Mouse lymphoma, Strain/Indicator: L5178Y (tk+/tk-), Metabolic Activation: None, Method: Suspension/plate); “inactive; negative” (Test System: Mouse lymphoma, Strain/Indicator: L5178Y (tk+/tk-), Metabolic Activation: Rat, Liver, S-9, Aroclor 1254, Method: Suspension/plate).

Consider `CCN(CC)CCNC(=O)c1ccc(N)cc1`, for which the mutagenic call by setting is: (Test System: CHINESE HAMSTER V-79, Strain/Indicator: V-79 (HGPRT)/6-THIOGUANINE, Metabolic Activation: NONE) “inactive; negative”; (Test System: UDS HUMAN HEPATOCYTES, Strain/Indicator: THY INCORP, Metabolic Activation: NONE, Method: AUTORADIOGRAPHY) “inactive; negative”; (Test System: UDS RAT HEPATOCYTES, Strain/Indicator: THY INCORP, Metabolic Activation: NONE, Method: AUTORADIOGRAPHY) “inactive; negative”.

Regarding `O=[N+]([O-])c1ccc(-c2ccc([N+](=O)[O-])cc2)cc1`, the mutagenic call runs as follows: under setting [3], “active; positive”; under setting [4], “inactive; negative”; under setting [1], “active; positive”; under setting [5], “active; positive”; under setting [6], “active; positive”.

The record behind these values is PubChem BioAssay AID1259407 (Chemical Carcinogenesis Research Information System (CCRIS), 2018).
